Structures can show the parent of a compound that is named as a salt.
Target: KRas G12D (Homo sapiens (Human), UniProt P01116, G12D)
Assay: KRas G12D Binding Assay (TR-FRET displacement of Cy5 labelled tracer)
Settings: GDP-loaded KRAS G12D (amino acids 1:169), 60 minute incubation at 22° C.
Description: After a 60 minute incubation at 22° C., the reaction was measured using a PerkinElmer EnVision multimode plate reader via TR-FRET dual wavelength detection, and the percent of control (POC) calculated using a ratiometric emission factor. […] The POC values were fit to a 4-parameter logistic curve and the IC50 value was determined as the concentration where the curve crosses 50 POC.
ND stands for “not determined.”

Sequence of KRas G12D (P01116 other isoform, or with tags, fused parts or gaps G12D): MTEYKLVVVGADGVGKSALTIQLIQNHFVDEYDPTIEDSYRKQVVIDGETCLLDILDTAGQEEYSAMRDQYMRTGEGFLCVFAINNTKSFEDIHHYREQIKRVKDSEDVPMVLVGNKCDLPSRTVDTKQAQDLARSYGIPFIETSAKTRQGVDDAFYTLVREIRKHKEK

Structure (SMILES) | IC50
Cc1cc(-c2ncc3c(N4C[C@H]5CC[C@@H](C4)N5)nc(OCC45CCCN4CCC5)nc3c2F)c2c(Cl)cccc2c1 [Example 175, 4-((1R,5S)-3,8-diazabicyclo[3.2.1]octan-3-yl)-7-(8-chloro-3-methylnaphthalen-1-yl)-8-fluoro-2-((hexahydro-1H-pyrrolizin-7a-yl)methoxy)pyrido[4,3-d]pyrimidine] | 63.8 nM
Cn1cc([C@H]2CN3CCC[C@]3(COc3nc(N4CC5CCC(C4)N5)c4cnc(-c5cccc6cccc(Cl)c56)c(F)c4n3)C2)cn1 (stereo in doubt) [Example 220, 4-((1R,5S)-3,8-diazabicyclo[3.2.1]octan-3-yl)-7-(8-chloronaphthalen-1-yl)-8-fluoro-2-((2-(1-methyl-1H-pyrazol-4-yl)tetrahydro-1H-pyrrolizin-7a(5H)-yl)methoxy)pyrido[4,3-d]pyrimidine tris-hydrochloride salt] | 8.7 nM
O=C(CCl)N1CCC(Oc2nc(N3C[C@H]4CC[C@@H](C3)N4)c3cnc(-c4cccc5cccc(Cl)c45)c(F)c3n2)CC1 [Example 163, 1-(4-((4-((1R,5S)-3,8-diazabicyclo[3.2.1]octan-3-yl)-7-(8-chloronaphthalen-1-yl)-8-fluoropyrido[4,3-d]pyrimidin-2-yl)oxy)piperidin-1-yl)-2-chloroethan-1-one bis(2,2,2-trifluoroacetate)] | 5550 nM
Fc1cccc(-c2ncc3c(N4C[C@H]5CC[C@@H](C4)N5)nc(OCC45CCCN4CCC5)nc3c2F)c1C1CC1 [Example 304, 4-((1R,5S)-3,8-diazabicyclo[3.2.1]octan-3-yl)-7-(2-cyclopropyl-3-fluorophenyl)-8-fluoro-2-((hexahydro-1H-pyrrolizin-7a-yl)methoxy)pyrido[4,3-d]pyrimidine] | 29.2 nM
Oc1cc(-c2ncc3c(N4C[C@H]5CC[C@@H](C4)N5)nc(OCC45CCCN4C(CF)CC5)nc3c2F)c2c(Cl)cccc2c1 (stereo partly drawn) [Example 400, 4-(4-((1R,5S)-3,8-diazabicyclo[3.2.1]octan-3-yl)-8-fluoro-2-((3-(fluoromethyl)tetrahydro-1H-pyrrolizin-7a(5H)-yl)methoxy)pyrido[4,3-d]pyrimidin-7-yl)-5-chloronaphthalen-2-ol] | 4.2 nM
OCc1nccn1CCOc1nc(N2CC3CCC(C2)N3)c2cnc(-c3cccc4cccc(Cl)c34)c(F)c2n1 [Example 171, (1-(2-((4-(3,8-diazabicyclo[3.2.1]octan-3-yl)-7-(8-chloronaphthalen-1-yl)-8-fluoropyrido[4,3-d]pyrimidin-2-yl)oxy)ethyl)-1H-imidazol-2-yl)methanol] | 757 nM
Cn1ccc(CCOc2nc(N3C[C@H]4CC[C@@H](C3)N4)c3cnc(-c4cccc5cccc(Cl)c45)c(F)c3n2)n1 [Example 145, 4-((1R,5S)-3,8-diazabicyclo[3.2.1]octan-3-yl)-7-(8-chloronaphthalen-1-yl)-8-fluoro-2-(2-(1-methyl-1H-pyrazol-3-yl)ethoxy)pyrido[4,3-d]pyrimidine] | 5000 nM
Oc1cc(-c2ncc3c(N4C[C@H]5CC[C@@H](C4)N5)nc(OC[C@@]45CCCN4C[C@H](F)C5)nc3c2F)c2c(F)cccc2c1 [Example 282, 4-(4-((1R,5S)-3,8-diazabicyclo[3.2.1]octan-3-yl)-8-fluoro-2-(((2R,7aS)-2-fluorohexahydro-1H-pyrrolizin-7a-yl)methoxy)pyrido[4,3-d]pyrimidin-7-yl)-5-fluoronaphthalen-2-ol] | 0.7 nM
CCC1(N)CN(c2nc(N3C[C@H]4CC[C@@H](C3)N4)c3cnc(-c4cccc5cccc(Cl)c45)c(F)c3n2)C1 [Example 128, 1-(4-((1R,5S)-3,8-diazabicyclo[3.2.1]octan-3-yl)-7-(8-chloronaphthalen-1-yl)-8-fluoropyrido[4,3-d]pyrimidin-2-yl)-3-ethylazetidin-3-amine] | 501 nM
Fc1c(-c2cccc3cccc(Cl)c23)ncc2c(N3C[C@H]4CC[C@@H](C3)N4)nc(OCC34CCCN3CCOC4)nc12 (stereo partly drawn) [Example 200, 8a-(((4-((1R,5S)-3,8-diazabicyclo[3.2.1]octan-3-yl)-7-(8-chloronaphthalen-1-yl)-8-fluoropyrido[4,3-d]pyrimidin-2-yl)oxy)methyl)hexahydro-1H-pyrrolo[2,1-c][1,4]oxazine] | 230 nM
CN1C[C@H](NC(=O)c2cccc(S(=O)(=O)F)c2)C[C@H]1COc1nc(N2C[C@H]3CC[C@@H](C2)N3)c2cnc(-c3cccc4cccc(Cl)c34)c(F)c2n1 [Example 211, 3-(((3R,5S)-5-(((4-((1R,5S)-3,8-diazabicyclo[3.2.1]octan-3-yl)-7-(8-chloronaphthalen-1-yl)-8-fluoropyrido[4,3-d]pyrimidin-2-yl)oxy)methyl)-1-methylpyrrolidin-3-yl)carbamoyl)benzenesulfonyl fluoride tris(2,2,2-trifluoroacetate)] | 212 nM
CCc1cccc2cccc(-c3ncc4c(N5C[C@H]6CC[C@@H](C5)N6)nc(OC[C@@]56CCCN5C[C@H](F)C6)nc4c3F)c12 [Example 465, 4-((1R,5S)-3,8-diazabicyclo[3.2.1]octan-3-yl)-7-(8-ethylnaphthalen-1-yl)-8-fluoro-2-(((2R,7aS)-2-fluorohexahydro-1H-pyrrolizin-7a-yl)methoxy)pyrido[4,3-d]pyrimidine] | 0.001 nM
Fc1c(-c2cccc3cccc(Cl)c23)ncc2c(N3CC4CCC(C3)N4)nc(OC[C@@]34CCCN3C[C@@H](C(F)(F)F)C4)nc12 (mixture of isomers) [Example 382] | 21.1 nM
Fc1c(-c2ccccc2OC(F)(F)F)ncc2c(N3C[C@H]4CC[C@@H](C3)N4)nc(OCC34CCCN3CCC4)nc12 [Example 229, 4-((1R,5S)-3,8-diazabicyclo[3.2.1]octan-3-yl)-8-fluoro-2-((tetrahydro-1H-pyrrolizin-7a(5H)-yl)methoxy)-7-(2-(trifluoromethoxy)phenyl)pyrido[4,3-d]pyrimidine bis-hydrochloride] | 121 nM
Fc1c(-c2cccc3cccc(Cl)c23)ncc2c(N3CC4CCC(C3)N4)nc(OC[C@]34CCCN3C[C@H](c3ccccc3)C4)nc12 (stereo in doubt) [Example 221, 4-((1R,5S)-3,8-diazabicyclo[3.2.1]octan-3-yl)-7-(8-chloronaphthalen-1-yl)-8-fluoro-2-((2-phenyltetrahydro-1H-pyrrolizin-7a(5H)-yl)methoxy)pyrido[4,3-d]pyrimidine bis-hydrochloride salt] | 15.7 nM
[2H]C1([2H])CC[C@@]2(C([2H])([2H])Oc3nc(N4C[C@H]5CC[C@@H](C4)N5)c4cnc(-c5cc(O)cc6cccc(CC)c56)c(F)c4n3)C[C@@H](F)CN12 [Example 480, 4-(4-((1R,5S)-3,8-diazabicyclo[3.2.1]octan-3-yl)-8-fluoro-2-(((2R,7aS)-2-fluorotetrahydro-1H-pyrrolizin-7a(5H)-yl-5,5-d2)methoxy-d2)pyrido[4,3-d]pyrimidin-7-yl)-5-ethylnaphthalen-2-ol] | < 0.002 nM
Fc1c(-c2cccc3cccc(Br)c23)ncc2c(N3C[C@H]4CC[C@@H](C3)N4)nc(OCC34CCCN3CCC4)nc12 [Example 235, 4-((1R,5S)-3,8-diazabicyclo[3.2.1]octan-3-yl)-7-(8-bromonaphthalen-1-yl)-8-fluoro-2-((tetrahydro-1H-pyrrolizin-7a(5H)-yl)methoxy)pyrido[4,3-d]pyrimidine] | 1.2 nM
CN(C)C(=O)NC[C@H]1CC[C@@]2(COc3nc(N4CC5CCC(C4)N5)c4cnc(-c5cccc6cccc(Cl)c56)c(F)c4n3)CCCN12 [Example 412, 3-((7a-(((4-(3,8-diazabicyclo[3.2.1]octan-3-yl)-7-(8-chloronaphthalen-1-yl)-8-fluoropyrido[4,3-d]pyrimidin-2-yl)oxy)methyl)hexahydro-1H-pyrrolizin-3-yl)methyl)-1,1-dimethylurea] | 17.7 nM
Cc1cccc(-c2ncc3c(N4C[C@H]5CC[C@@H](C4)N5)nc(OCC45CCCN4CCC5)nc3c2F)c1C(C)C [Example 301, 4-((1R,5S)-3,8-diazabicyclo[3.2.1]octan-3-yl)-8-fluoro-2-((hexahydro-1H-pyrrolizin-7a-yl)methoxy)-7-(2-isopropyl-3-methylphenyl)pyrido[4,3-d]pyrimidine] | 35.1 nM
CCc1ccc(O)cc1-c1ncc2c(N3C[C@H]4CC[C@@H](C3)N4)nc(OCC34CCCN3CCC4)nc2c1F [Example 263, 3-(4-((1R,5S)-3,8-diazabicyclo[3.2.1]octan-3-yl)-8-fluoro-2-((hexahydro-1H-pyrrolizin-7a-yl)methoxy)pyrido[4,3-d]pyrimidin-7-yl)-4-ethylphenol] | 1.5 nM
OCCc1cccc2cccc(-c3ncc4c(N5C[C@H]6CC[C@@H](C5)N6)nc(OCC56CCCN5CCC6)nc4c3F)c12 [Example 239, 2-(8-(4-((1R,5S)-3,8-diazabicyclo[3.2.1]octan-3-yl)-8-fluoro-2-((tetrahydro-1H-pyrrolizin-7a(5H)-yl)methoxy)pyrido[4,3-d]pyrimidin-7-yl)naphthalen-1-yl)ethan-1-ol] | 2 nM
CCC#Cc1cccc2cccc(-c3ncc4c(N5C[C@H]6CC[C@@H](C5)N6)nc(OCC56CCCN5CCC6)nc4c3F)c12 [Example 242, 4-((1R,5S)-3,8-diazabicyclo[3.2.1]octan-3-yl)-7-(8-(but-1-yn-1-yl)naphthalen-1-yl)-8-fluoro-2-((tetrahydro-1H-pyrrolizin-7a(5H)-yl)methoxy)pyrido[4,3-d]pyrimidine] | 82.2 nM
CCCc1cccc2cccc(-c3ncc4c(N5C[C@H]6CC[C@@H](C5)N6)nc(OCC56CCCN5CCC6)nc4c3F)c12 [Example 254, 4-((1R,5S)-3,8-diazabicyclo[3.2.1]octan-3-yl)-8-fluoro-2-((hexahydro-1H-pyrrolizin-7a-yl)methoxy)-7-(8-propylnaphthalen-1-yl)pyrido[4,3-d]pyrimidine] | 6.1 nM
Oc1cc(-c2ncc3c(N4C[C@H]5CC[C@@H](C4)N5)nc(OC[C@@]45CCCN4C[C@H](F)C5)nc3c2F)c2c(Cl)cccc2c1 [Example 251, 4-(4-((1R,5S)-3,8-diazabicyclo[3.2.1]octan-3-yl)-8-fluoro-2-(((2R,7aS)-2-fluorohexahydro-1H-pyrrolizin-7a-yl)methoxy)pyrido[4,3-d]pyrimidin-7-yl)-5-chloronaphthalen-2-ol] | 0.2 nM

Source: patent US20230279025A1, “KRAS G12D INHIBITORS” (Mirati Therapeutics, Inc., priority 2020, published 2023)
